This note sets out measurements from PubChem BioAssay AID651817 (Broad Institute, 2012).

Activity calls are given as the source filed them.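 Rule for the calls: active = compound whose fitted luminescence drop, meaning cytotoxicity, reaches half effect at most twice its top valid tested dose; inconclusive = flat curve with a moderate drop, or an unreliable fit; inactive = rise instead of drop, flat response, or weaker potency.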

One experiment can be described thus: NIH/3T3 fibroblast cytotoxicity, dose response, cytotoxicity control for T. cruzi growth inhibitor project, cell-based, cherry-pick samples, set 2 (AID 651817). The settings on record: NIH/3T3 viability, ATP luminescence (CellTiter-Glo), 90 h; at 4.2 µM (top of the series). For orientation: ATP-based viability assays read luminescence as a measure of living cells.
Regarding `COc1ccc(CN(C)C[C@H]2Oc3c(NC(=O)Nc4ccc(C(F)(F)F)cc4)cccc3C(=O)N([C@H](C)CO)C[C@H]2C)cc1`, the activity change, negative = cytotoxicity was 6.55% (inactive).

Still in this experiment, the particulars now being: NIH/3T3 viability, ATP luminescence (CellTiter-Glo), 90 h; at 19.5 µM (top of the series).
Consider `Cc1noc(C)c1NC(=O)Nc1cccc2c1O[C@@H](CN(C)S(C)(=O)=O)[C@@H](C)CN([C@@H](C)CO)C2=O`, for which the activity change, negative = cytotoxicity was -35% (inactive).
On the same count and under the same terms, with `C[C@H]1CN([C@@H](C)CO)C(=O)c2cccc(NC(=O)NC3CCCCC3)c2O[C@@H]1CN(C)S(=O)(=O)c1ccc(F)cc1` the figure was 3.7% (inactive).
Consider `C[C@@H]1CN([C@H](C)CO)C(=O)c2cccc(NC(=O)c3ccncc3)c2O[C@@H]1CN(C)Cc1ccc2c(c1)OCO2`, for which the activity change, negative = cytotoxicity is -25.6% (inactive).
On to `Cc1ccc(S(=O)(=O)N(C)C[C@H]2Oc3ccc(NS(=O)(=O)c4ccccc4)cc3CC(=O)N([C@H](C)CO)C[C@H]2C)cc1`, for which the activity change, negative = cytotoxicity was -0.01% (inactive).
As for `C[C@H]1CN([C@@H](C)CO)C(=O)Cc2cc(NS(=O)(=O)c3ccccc3)ccc2O[C@@H]1CN(C)S(=O)(=O)c1ccc(Cl)cc1`, the activity change, negative = cytotoxicity was -7.84% (inactive).
On the same count and under the same terms, as for `C[C@H](CO)N1C[C@H](C)[C@@H](CN(C)S(=O)(=O)c2ccc(Cl)cc2)Oc2ccc(NS(=O)(=O)c3ccc(Cl)cc3)cc2CC1=O`, the figure is -32.5% (inactive).
Consider `Cc1ccc(S(=O)(=O)N(C)C[C@@H]2Oc3ccc(NS(=O)(=O)c4ccccc4)cc3CC(=O)N([C@@H](C)CO)C[C@H]2C)cc1`, for which the activity change, negative = cytotoxicity was -8.95% (inactive).
Still for that read-out and setting: with `C[C@H](CO)N1C[C@H](C)[C@@H](CN(C)Cc2ccc(Oc3ccccc3)cc2)Oc2c(NC(=O)c3ccncc3)cccc2C1=O` the figure was 16.4% (inactive); with `C[C@@H]1CN([C@H](C)CO)C(=O)c2cccc(NC(=O)NC3CCCCC3)c2O[C@H]1CN(C)S(=O)(=O)c1ccc(F)cc1`, 1.29% (inactive); with `Cc1noc(C)c1NC(=O)Nc1cccc2c1O[C@H](CN(C)S(C)(=O)=O)[C@@H](C)CN([C@H](C)CO)C2=O`, 2.45% (inactive).
`Cc1ccc(S(=O)(=O)N(C)C[C@H]2Oc3c(NC(=O)c4nc5ccccc5s4)cccc3C(=O)N([C@H](C)CO)C[C@@H]2C)cc1`: the activity change, negative = cytotoxicity is -6.91% (inactive).
Same read-out and setting: as for `Cc1ccc(S(=O)(=O)N(C)C[C@H]2Oc3c(NC(=O)c4nc5ccccc5s4)cccc3C(=O)N([C@H](C)CO)C[C@H]2C)cc1`, the figure is 14.1% (inactive); as for `COc1ccc(CN(C)C[C@H]2Oc3c(NC(=O)c4ccncc4)cccc3C(=O)N([C@H](C)CO)C[C@@H]2C)cc1`, 23.4% (inactive).
Same read-out and setting: with `C[C@@H]1CN([C@H](C)CO)C(=O)c2cccc(NC(=O)c3nc4ccccc4s3)c2O[C@@H]1CN(C)Cc1ccc2c(c1)OCO2` the figure was -22.1% (inactive); with `C[C@@H]1CN([C@H](C)CO)C(=O)c2cccc(NC(=O)c3nc4ccccc4s3)c2O[C@H]1CN(C)Cc1ccc2c(c1)OCO2`, -10.9% (inactive).
Consider `C[C@H](CO)N1C[C@H](C)[C@H](CN(C)Cc2ccc3c(c2)OCO3)Oc2c(NC(=O)c3nc4ccccc4s3)cccc2C1=O`, for which the activity change, negative = cytotoxicity is -1.97% (inactive).
`Cc1ccc(S(=O)(=O)N(C)C[C@@H]2Oc3ccc(NS(=O)(=O)c4ccccc4)cc3CC(=O)N([C@@H](C)CO)C[C@@H]2C)cc1`: the activity change, negative = cytotoxicity was 9.31% (inactive).
Turning to `C[C@@H]1CN([C@H](C)CO)C(=O)Cc2cc(NS(=O)(=O)c3ccccc3)ccc2O[C@@H]1CN(C)S(=O)(=O)c1ccc(Cl)cc1`, the activity change, negative = cytotoxicity is -10.7% (inactive).
On the same count and under the same terms, with `C[C@H]1CN([C@@H](C)CO)C(=O)Cc2cc(NS(=O)(=O)c3ccc(Cl)cc3)ccc2O[C@H]1CN(C)S(=O)(=O)c1ccc(Cl)cc1` the figure was -12.7% (inactive); with `C[C@H]1CN([C@@H](C)CO)C(=O)c2cccc(NC(=O)c3ccncc3)c2O[C@@H]1CN(C)Cc1ccc(-c2ccccc2)cc1`, -14.8% (inactive).
Still for that read-out and setting: as for `C[C@@H]1CN([C@@H](C)CO)C(=O)Cc2cc(NS(=O)(=O)c3ccc(Cl)cc3)ccc2O[C@@H]1CN(C)S(=O)(=O)c1ccc(Cl)cc1`, the figure is -14.1% (inactive); as for `C[C@H]1CN([C@@H](C)CO)C(=O)c2cccc(NC(=O)c3nc4ccccc4s3)c2O[C@H]1CN(C)Cc1ccc2c(c1)OCO2`, -36.3% (inactive).
In the case of `C[C@@H]1CN([C@H](C)CO)C(=O)c2cccc(NC(=O)c3ccncc3)c2O[C@@H]1CN(C)Cc1ccc(C(F)(F)F)cc1`, the activity change, negative = cytotoxicity is -24.5% (inactive).
As to `Cc1ccc(S(=O)(=O)N(C)C[C@@H]2Oc3ccc(NS(=O)(=O)c4ccccc4)cc3CC(=O)N([C@H](C)CO)C[C@H]2C)cc1`, the activity change, negative = cytotoxicity is -18.9% (inactive).
For the molecule `C[C@@H]1CN([C@@H](C)CO)C(=O)Cc2cc(NS(=O)(=O)c3ccccc3)ccc2O[C@@H]1CN(C)S(=O)(=O)c1ccc(Cl)cc1`, the activity change, negative = cytotoxicity is -12.4% (inactive).
Consider `C[C@H](CO)N1C[C@H](C)[C@H](CN(C)CC2CCCCC2)Oc2c(NC(=O)c3ccncc3)cccc2C1=O`, for which the activity change, negative = cytotoxicity was 2.09% (inactive).
Consider `Cc1ccc(S(=O)(=O)Nc2ccc3c(c2)CC(=O)N([C@H](C)CO)C[C@H](C)[C@H](CN(C)Cc2ccc(Cl)c(Cl)c2)O3)cc1`, for which the activity change, negative = cytotoxicity is -1.7% (inactive).
`C[C@@H]1CN([C@@H](C)CO)C(=O)c2cccc(NC(=O)c3nc4ccccc4s3)c2O[C@H]1CN(C)Cc1ccc2c(c1)OCO2`: the activity change, negative = cytotoxicity is -20.2% (inactive).
Consider `Cc1ccc(S(=O)(=O)N(C)C[C@H]2Oc3c(NC(=O)c4nc5ccccc5s4)cccc3C(=O)N([C@@H](C)CO)C[C@@H]2C)cc1`, for which the activity change, negative = cytotoxicity was -1.47% (inactive).
Still for that read-out and setting: as for `Cc1ccc(S(=O)(=O)N(C)C[C@H]2Oc3ccc(NS(=O)(=O)c4ccc(Cl)cc4)cc3CC(=O)N([C@H](C)CO)C[C@@H]2C)cc1`, the figure is 3.37% (inactive); as for `C[C@@H]1CN([C@@H](C)CO)C(=O)c2cccc(NC(=O)c3nc4ccccc4s3)c2O[C@H]1CN(C)S(=O)(=O)c1ccccc1`, -9.49% (inactive).
As for `C[C@@H]1CN([C@@H](C)CO)C(=O)c2cccc(NC(=O)c3ccncc3)c2O[C@H]1CN(C)Cc1ccc(C(F)(F)F)cc1`, the activity change, negative = cytotoxicity is 0.884% (inactive).
On the same count and under the same terms, with `C[C@H](CO)N1C[C@H](C)[C@@H](CN(C)S(=O)(=O)c2ccccc2)Oc2c(NC(=O)c3nc4ccccc4s3)cccc2C1=O` the figure was -18.8% (inactive).
Take `C[C@@H]1CN([C@@H](C)CO)C(=O)c2cccc(NC(=O)c3nc4ccccc4s3)c2O[C@@H]1CN(C)Cc1ccc2c(c1)OCO2`: the activity change, negative = cytotoxicity was 0.748% (inactive).
Take `Cc1ccc(S(=O)(=O)N(C)C[C@@H]2Oc3c(NC(=O)c4nc5ccccc5s4)cccc3C(=O)N([C@@H](C)CO)C[C@H]2C)cc1`: the activity change, negative = cytotoxicity is -13.6% (inactive).
On the same count and under the same terms, as for `Cc1noc(C)c1NC(=O)Nc1cccc2c1O[C@@H](CN(C)S(C)(=O)=O)[C@H](C)CN([C@@H](C)CO)C2=O`, the figure is -28% (inactive).
Take `COc1ccc(CN(C)C[C@@H]2Oc3c(NC(=O)Nc4ccc(C(F)(F)F)cc4)cccc3C(=O)N([C@@H](C)CO)C[C@@H]2C)cc1`: the activity change, negative = cytotoxicity was -25.6% (inactive).
On the same count and under the same terms, with `C[C@@H]1CN([C@@H](C)CO)C(=O)c2cccc(NC(=O)c3ccncc3)c2O[C@@H]1CN(C)Cc1ccc(Cl)c(Cl)c1` the figure was 33% (inactive).
Consider `C[C@@H]1CN([C@H](C)CO)C(=O)c2cccc(NC(=O)c3ccncc3)c2O[C@H]1CN(C)CC1CC1`, for which the activity change, negative = cytotoxicity is -26.2% (inactive).
Regarding `C[C@@H]1CN([C@H](C)CO)C(=O)Cc2cc(NS(=O)(=O)c3ccc(F)cc3)ccc2O[C@H]1CN(C)Cc1ccc(Cl)c(Cl)c1`, the activity change, negative = cytotoxicity was -17.9% (inactive).
Same read-out and setting: with `C[C@@H]1CN([C@@H](C)CO)C(=O)c2cccc(NC(=O)c3ccncc3)c2O[C@H]1CN(C)Cc1ccc2c(c1)OCO2` the figure was -26.4% (inactive).
Turning to `Cc1ccc(S(=O)(=O)Nc2ccc3c(c2)CC(=O)N([C@@H](C)CO)C[C@H](C)[C@H](CN(C)S(=O)(=O)c2ccc(Cl)cc2)O3)cc1`, the activity change, negative = cytotoxicity was -3.56% (inactive).
Turning to `C[C@H](CO)N1C[C@H](C)[C@H](CN(C)Cc2ccc(-c3ccccc3)cc2)Oc2c(NC(=O)c3ccncc3)cccc2C1=O`, the activity change, negative = cytotoxicity was 4.37% (inactive).

Staying with this experiment, now noted: NIH/3T3 viability, ATP luminescence (CellTiter-Glo), 90 h; at 21 µM (top of the series).
With `C[C@H]1CN([C@@H](C)CO)C(=O)c2cccc(NC(=O)c3ccncc3)c2O[C@@H]1CN(C)Cc1ccccc1`, the activity change, negative = cytotoxicity was 10.2% (inactive).
In the case of `C[C@H]1CN([C@@H](C)CO)C(=O)c2cccc(NC(=O)Nc3ccc(C(F)(F)F)cc3)c2O[C@@H]1CN(C)Cc1ccc(Cl)c(Cl)c1`, the activity change, negative = cytotoxicity is -12.5% (inactive).
Regarding `C[C@@H]1CN([C@@H](C)CO)C(=O)c2cccc(NC(=O)c3ccncc3)c2O[C@@H]1CN(C)Cc1ccc(Oc2ccccc2)cc1`, the activity change, negative = cytotoxicity is 31.2% (inactive).
Turning to `Cc1ccc(S(=O)(=O)N(C)C[C@H]2Oc3ccc(NS(=O)(=O)c4ccc(Cl)cc4)cc3CC(=O)N([C@@H](C)CO)C[C@@H]2C)cc1`, the activity change, negative = cytotoxicity is -2.46% (inactive).
The same measure, in the same setting: with `Cc1ccc(S(=O)(=O)Nc2ccc3c(c2)CC(=O)N([C@H](C)CO)C[C@H](C)[C@H](CN(C)S(=O)(=O)c2ccc(Cl)cc2)O3)cc1` the figure was -27.3% (inactive); with `C[C@@H]1CN([C@@H](C)CO)C(=O)c2cccc(NC(=O)c3ccncc3)c2O[C@H]1CN(C)Cc1ccccc1`, 6.47% (inactive).
For the molecule `C[C@@H]1CN([C@H](C)CO)C(=O)c2cccc(NC(=O)c3ccncc3)c2O[C@H]1CN(C)Cc1ccc(C(F)(F)F)cc1`, the activity change, negative = cytotoxicity is -18.8% (inactive).
In the case of `C[C@H]1CN([C@@H](C)CO)C(=O)c2cccc(NC(=O)c3ccncc3)c2O[C@H]1CN(C)Cc1ccc(Oc2ccccc2)cc1`, the activity change, negative = cytotoxicity was 7.51% (inactive).
